Test results from patent US20170050957A1, “4-AMINO-6-(HETEROCYCLIC)PICOLINATES AND 6-AMINO-2-(HETEROCYCLIC)PYRIMIDINE-4-CARBOXYLATES AND THEIR USE AS HERBICIDES” (Dow AgroSciences LLC, priority 2013, published 2017).
Where two headings read alike, the source gives them in different places.

Key:
[1] = system: Key Broadleaf Weed and Crop Species; assay: Post-emergent Test II herbicidal activity (Table 15); assay type: in vivo; settings: post-emergence, 336 h, 14 d; for pest or weed control at 35 g/ha: 35 g ai/ha; for pest or weed control at 70 g/ha: 70 g ai/ha; for pest or weed control at 140 g/ha: 140 g ai/ha
In short: (§1)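 Herbicidal effect scored as percent visual injury, 14 d after post-emergent application. Spray solutions contained acetone, DMSO, isopropyl alcohol, crop oil concentrate and surfactant, applied at 187 L/ha to young plants (1-2 true leaves).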

[2] = system: Key Grass and Sedge Weeds as well as Grass Crops; assay: Post-emergent Test II herbicidal activity (Table 16); assay type: in vivo; settings: post-emergence, 336 h, 14 d; for pest or weed control at 35 g/ha: 35 g ai/ha; for pest or weed control at 70 g/ha: 70 g ai/ha; for pest or weed control at 140 g/ha: 140 g ai/ha
In short: as §1

[3] = Abutilon theophrasti, velvetleaf (Abutilon theophrasti), read-out: Visual Growth Reduction (%) 14 Days After Application, ABUTH
[4] = Amaranthus retroflexus, redroot pigweed (Amaranthus retroflexus), read-out: Visual Growth Reduction (%) 14 Days After Application, AMARE
[5] = Brassica napus, oilseed rape, canola (Brassica napus), read-out: Visual Growth Reduction (%) 14 Days After Application, BRSNN
[6] = Chenopodium album, lambsquarters (Chenopodium album), read-out: Visual Growth Reduction (%) 14 Days After Application, CHEAL
[7] = Euphorbia heterophylla, wild poinsettia (Euphorbia heterophylla), read-out: Visual Growth Reduction (%) 14 Days After Application, EPHHL
[8] = Helianthus annuus, sunflower (Helianthus annuus), read-out: Visual Growth Reduction (%) 14 Days After Application, HELAN
[9] = Cyperus esculentus, yellow nutsedge (Cyperus esculentus), read-out: Visual Growth Reduction (%) 14 Days After Application, CYPES
[10] = Echinochloa crus-galli, barnyardgrass (Echinochloa crus-galli), read-out: Visual Growth Reduction (%) 14 Days After Application, ECHCG
[11] = Oryza sativa, rice (Oryza sativa), read-out: Visual Growth Reduction (%) 14 Days After Application, ORYSA
[12] = Triticum aestivum, wheat, spring (Triticum aestivum), read-out: Visual Growth Reduction (%) 14 Days After Application, TRZAS
[13] = Zea mays, maize, corn (Zea mays), read-out: Visual Growth Reduction (%) 14 Days After Application, ZEAMX
[14] = Setaria faberi, giant foxtail (Setaria faberi), read-out: Visual Growth Reduction (%) 14 Days After Application, SETFA

SMILES	pest or weed control at 35 g/ha [1, 3] [%]	pest or weed control at 70 g/ha [1, 3] [%]	pest or weed control at 140 g/ha [1, 3] [%]	pest or weed control at 35 g/ha [1, 4] [%]	pest or weed control at 70 g/ha [1, 4] [%]	pest or weed control at 140 g/ha [1, 4] [%]	pest or weed control at 35 g/ha [1, 5] [%]	pest or weed control at 70 g/ha [1, 5] [%]	pest or weed control at 140 g/ha [1, 5] [%]	pest or weed control at 35 g/ha [1, 6] [%]	pest or weed control at 70 g/ha [1, 6] [%]	pest or weed control at 140 g/ha [1, 6] [%]	pest or weed control at 35 g/ha [1, 7] [%]	pest or weed control at 70 g/ha [1, 7] [%]	pest or weed control at 140 g/ha [1, 7] [%]	pest or weed control at 35 g/ha [1, 8] [%]	pest or weed control at 70 g/ha [1, 8] [%]	pest or weed control at 140 g/ha [1, 8] [%]	pest or weed control at 35 g/ha [2, 9] [%]	pest or weed control at 70 g/ha [2, 9] [%]	further results
COC(=O)c1nc(-c2ccc(Cl)c3occc23)cc(N)c1Cl [Compound 2.19]	95 to 100	95 to 100	95 to 100	95 to 100	95 to 100	95 to 100	0 to 29	60 to 74	60 to 74	95 to 100	95 to 100	95 to 100	0 to 29	0 to 29	0 to 29	0 to 29	75 to 84	75 to 84	0 to 29	0 to 29	pest or weed control at 140 g/ha [2, 9]: 0 to 29%; pest or weed control at 35 g/ha [2, 10]: 0 to 29%; pest or weed control at 70 g/ha [2, 10]: 0 to 29%; pest or weed control at 140 g/ha [2, 10]: 0 to 29%; pest or weed control at 35 g/ha [2, 11]: 0 to 29%; pest or weed control at 70 g/ha [2, 11]: 0 to 29%; pest or weed control at 140 g/ha [2, 11]: 0 to 29%; pest or weed control at 35 g/ha [2, 12]: 0 to 29%; pest or weed control at 70 g/ha [2, 12]: 0 to 29%; pest or weed control at 140 g/ha [2, 12]: 0 to 29%; pest or weed control at 35 g/ha [2, 13]: 0 to 29%; pest or weed control at 70 g/ha [2, 13]: 0 to 29%; pest or weed control at 140 g/ha [2, 13]: 0 to 29%; melting point: 158 to 159 °C
COC(=O)c1nc(-c2ccc(Cl)c3[nH]ccc23)cc(N)c1Cl [Compound 1.44]	0 to 29	75 to 84	85 to 94	85 to 94	95 to 100	95 to 100	0 to 29	0 to 29	30 to 44	85 to 94	85 to 94	95 to 100	45 to 59	75 to 84	85 to 94	0 to 29	0 to 29	0 to 29	0 to 29	0 to 29	pest or weed control at 140 g/ha [2, 9]: 0 to 29%; pest or weed control at 35 g/ha [2, 10]: 0 to 29%; pest or weed control at 70 g/ha [2, 10]: 0 to 29%; pest or weed control at 140 g/ha [2, 10]: 0 to 29%; pest or weed control at 35 g/ha [2, 11]: 0 to 29%; pest or weed control at 70 g/ha [2, 11]: 0 to 29%; pest or weed control at 140 g/ha [2, 11]: 0 to 29%; pest or weed control at 35 g/ha [2, 14]: 0 to 29%; pest or weed control at 70 g/ha [2, 14]: 0 to 29%; pest or weed control at 140 g/ha [2, 14]: 0 to 29%; pest or weed control at 35 g/ha [2, 12]: 0 to 29%; pest or weed control at 70 g/ha [2, 12]: 0 to 29%; pest or weed control at 140 g/ha [2, 12]: 0 to 29%; pest or weed control at 35 g/ha [2, 13]: 0 to 29%; pest or weed control at 70 g/ha [2, 13]: 0 to 29%; pest or weed control at 140 g/ha [2, 13]: 0 to 29%; melting point: 116 °C
